# Active and inactive are the calls of the source. The rule behind the calls is not given here.
# Legend:
# [1] = system: A549; experiment: Antiproliferative activity against human A549 cells assessed as reduction in cell viability incubated for 48 hrs by CCK8 assay; assay type: functional, cell-based; settings: A549, 48 h
# [2] = system: A549; experiment: Cell cycle arrest in human A549 cells assessed as accumulation of cells at G1 phase at 10 uM incubated for 24 hrs by PI staining based flow cytometric analysis (reference value: 56.42 +/- 1.36 %); assay type: functional
# [3] = system: NCI-H460; experiment: Cell cycle arrest in human NCI-H460 cells assessed as accumulation of cells at G1-S phase at 10 to 30 uM incubated for 24 hrs by PI staining based flow cytometric analysis; assay type: functional; settings: dose 10-30 µM
# [4] = system: A549; experiment: Cell cycle arrest in human A549 cells assessed as downregulation of CDK4 expression at 10 to 30 uM by Western blot analysis; assay type: functional, cell-based; settings: dose 10-30 µM
# [5] = system: NCI-H460; experiment: Cell cycle arrest in human NCI-H460 cells assessed as downregulation of CDK4 expression at 10 to 30 uM by Western blot analysis; assay type: functional, cell-based; settings: dose 10-30 µM
# [6] = system: A549; experiment: Induction of apoptosis in human A549 cells assessed as early apoptotic cells at 10 uM incubated for 24 hrs by Annexin V-FITC/PI staining based flow cytometric analysis (reference value: 0.44 %); assay type: functional
# [7] = system: A549; experiment: Induction of apoptosis in human A549 cells assessed as necrotic cells at 10 uM incubated for 24 hrs by Annexin V-FITC/PI staining based flow cytometric analysis (reference value: 0.97 %); assay type: functional
# [8] = system: A549; experiment: Induction of apoptosis in human A549 cells assessed as viable cells at 30 uM incubated for 24 hrs by Annexin V-FITC/PI staining based flow cytometric analysis (reference value: 96.29 %); assay type: functional; settings: read-out: Activity
# [9] = system: A549; experiment: Induction of apoptosis in human A549 cells assessed as late apoptotic cells at 30 uM incubated for 24 hrs by Annexin V-FITC/PI staining based flow cytometric analysis (reference value: 2.29 %); assay type: functional
# [10] = system: A549; experiment: Induction of apoptosis in human A549 cells assessed as necrotic cells at 30 uM incubated for 24 hrs by Annexin V-FITC/PI staining based flow cytometric analysis (reference value: 0.97 %); assay type: functional
# [11] = system: NCI-H460; experiment: Induction of apoptosis in human NCI-H460 cells assessed as viable cells at 10 uM incubated for 24 hrs by Annexin V-FITC/PI staining based flow cytometric analysis (reference value: 91.95 %); assay type: functional; settings: read-out: Activity
# [12] = system: NCI-H460; experiment: Induction of apoptosis in human NCI-H460 cells assessed as upregulation of Bax expression at 10 to 30 uM by Western blot analysis; assay type: functional, cell-based; settings: dose 10-30 µM
# [13] = system: NCI-H460; experiment: Induction of apoptosis in human NCI-H460 cells assessed as upregulation of cleaved caspase 3 expression at 10 to 30 uM by Western blot analysis; assay type: functional, cell-based; settings: dose 10-30 µM
# [14] = system: NCI-H460; experiment: Induction of apoptosis in human NCI-H460 cells assessed as decrease in Bcl2 expression at 10 to 30 uM by Western blot analysis; assay type: functional, cell-based; settings: dose 10-30 µM
# [15] = system: A549; experiment: Induction of autophagy in human A549 cells assessed as increase in Atg5 expression at 10 to 30 uM incubated for 24 hrs by Western blot analysis; assay type: functional, cell-based; settings: dose 10-30 µM
# [16] = system: A549; experiment: Inhibition of Akt/mTOR signalling pathway in human A549 cells assessed as decrease in phosphorylated Akt expression by Western blot analysis; assay type: cell-based; settings: dose 10-30 µM
# [17] = system: A549; experiment: Inhibition of Akt/mTOR signalling pathway in human A549 cells assessed as decrease in mTOR expression by Western blot analysis; assay type: cell-based; settings: dose 10-30 µM
# [18] = system: A549; experiment: Inhibition of Akt/mTOR signalling pathway in human A549 cells assessed as decrease in c-myc expression by Western blot analysis; assay type: cell-based; settings: dose 10-30 µM
# [19] = system: NCI-H460; experiment: Inhibition of Akt/mTOR signalling pathway in human NCI-H460 cells assessed as decrease in phosphorylated Akt expression by Western blot analysis; assay type: cell-based; settings: dose 10-30 µM
# [20] = system: NCI-H460; experiment: Inhibition of Akt/mTOR signalling pathway in human NCI-H460 cells assessed as decrease in phosphorylated PRAS40 expression by Western blot analysis; assay type: cell-based; settings: dose 10-30 µM
# [21] = system: NCI-H460; experiment: Inhibition of Akt/mTOR signalling pathway in human NCI-H460 cells assessed as decrease in c-myc expression by Western blot analysis; assay type: cell-based; settings: dose 10-30 µM
# [22] = system: A549; experiment: Inhibition of Akt/mTOR signaling pathway in human A549 cells assessed as decrease in mTOR expression in presence of temsirolimus by Western blot analysis; assay type: cell-based
# [23] = system: A549; experiment: Inhibition of Akt/mTOR signaling pathway in human A549 cells assessed as decrease in phosphorylated 4EBP1 expression in presence of temsirolimus by Western blot analysis; assay type: cell-based
# [24] = system: NCI-H460; experiment: Inhibition of Akt/mTOR signaling pathway in human NCI-H460 cells assessed as decrease in phosphorylated 4EBP1 expression in presence of temsirolimus by Western blot analysis; assay type: cell-based
# [25] = system: A549; experiment: Antiproliferative activity against human A549 cells assessed as inhibition of cell proliferation in presence of temsirolimus by CCK8 assay; assay type: functional, cell-based
# [26] = system: NCI-H460; experiment: Antiproliferative activity against human NCI-H460 cells assessed as inhibition of cell proliferation in presence of temsirolimus by CCK8 assay; assay type: functional, cell-based
# [27] = system: Gefitinib-resistant A549/G cell; experiment: Inhibition of Akt/mTOR signaling pathway in human Gefitinib-resistant A549/G cell assessed as decrease in phosphorylated 4EBP1 expression in presence of gefitinib by Western blot analysis; assay type: cell-based
# [28] = system: Gefitinib-resistant A549/G cell; experiment: Antiproliferative activity against human Gefitinib-resistant A549/G cell assessed as inhibition of cell proliferation in presence of gefitinib; assay type: functional, cell-based
# [29] = Toxicity in Balb/c nude mouse xenografted with human A549 cells assessed as reduction in body weight at 7.5 to 15 mg/kg, ip administered for 14 days; assay type: organism-based; settings: in vivo, 336 h, dose 7.5-15 mg/kg, time 14 day
# [30] = system: NCI-H460; experiment: Induction of apoptosis in human NCI-H460 cells assessed as viable cells at 30 uM incubated for 24 hrs by Annexin V-FITC/PI staining based flow cytometric analysis (reference value: 91.95 %); assay type: functional; settings: read-out: Activity
# [31] = system: NCI-H460; experiment: Induction of apoptosis in human NCI-H460 cells assessed as early apoptotic cells at 30 uM incubated for 24 hrs by Annexin V-FITC/PI staining based flow cytometric analysis (reference value: 3.22 %); assay type: functional
structure (smiles),measurement,setting,value
N#C[Se]CCCNC(=O)c1cccnc1,IC50,[1],15.4 µM
same,Activity,[2],75.43%
same,Activity,[3],Active
same,Activity,[4],Active; G1 Phase Cell Cycle Arrest Observed
same,Activity,[5],Active; G1 Phase Cell Cycle Arrest Observed
same,Activity,[6],3.66%
same,Activity,[7],3.03%
same,viability at 30 µM,[8],75.9%
same,Activity,[9],14.41%
same,Activity,[10],5.12%
same,viability at 10 µM,[11],81.5%
same,Activity,[12],Active
same,Activity,[13],Active
same,Activity,[14],Active
same,Activity,[15],Active
same,inhibition,[16],Dose-dependent-effect; Inhibitory Ability Of Compound Is Comparable To Temsirolimus
same,inhibition,[17],Dose-dependent-effect; Inhibitory Ability Of Compound Is Comparable To Temsirolimus
same,inhibition,[18],Dose-dependent-effect; Inhibitory Ability Of Compound Is Comparable To Temsirolimus
same,inhibition,[19],Dose-dependent-effect; Inhibitory Ability Of Compound Is Comparable To Temsirolimus
same,inhibition,[20],Dose-dependent-effect; Inhibitory Ability Of Compound Is Comparable To Temsirolimus
same,inhibition,[21],Dose-dependent-effect; Inhibitory Ability Of Compound Is Comparable To Temsirolimus
same,inhibition,[22],Active
same,inhibition,[23],Active
same,inhibition,[24],Active
same,Activity,[25],Active
same,Activity,[26],Active
same,inhibition,[27],Active
same,Activity,[28],Active
same,Activity,[29],Non-toxic
same,viability at 30 µM,[30],74.7%
same,Activity,[31],6.3%
